This note sets out measurements from USRE47689E1, “Compounds for treating spinal muscular atrophy” (PTC Therapeutics, Inc., priority 2011, dated 2019).

Data set [1] has as its system SMN2 minigene (full length SMN2 minigene mRNA containing SMN2 exon 7). The data set can be described thus: SMN2 minigene mRNA splicing RT-qPCR assay in cultured cells. The class given is cell-based, human. The settings on record: Homo sapiens, HEK293-H, read-out: EC1.5x for production of full length SMN2 mRNA. A digest of the protocol:
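Full-length SMN2 minigene mRNA (exon 7 included), minigene-specific and not endogenous SMN, quantified by RT-qPCR multiplexed with GAPDH in stably transfected HEK293H cells after 24 h compound exposure at 37° C. Abundance from efficiency-corrected Ct, normalized to GAPDH and vehicle; EC1.5x reported as star bins.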
On the technique in general: In qPCR the cycle at which signal appears reflects the starting amount.

The subject of the next data set is Smn protein. The data set can be described thus: Smn protein assay in cultured cells (SMN HTRF). The class given is cell-based, human. Conditions: 48 hours; for EC1.5x (concentration giving 1.5-fold Smn protein increase): SMA Type 1 patient fibroblast cells (GM03813), 7-point concentration curve, SMN HTRF, concentration producing 1.5 times Smn protein vs DMSO vehicle control, read-out: EC1.5x for Smn protein expression; for maximum fold (Fold) increase of Smn protein: SMA patient fibroblast cells, 7-point concentration data, fold increase relative to vehicle control (SMN HTRF). The procedure, abridged:
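Smn in SMA fibroblast lysates, measured by anti-SMN HTRF after 48 h compound exposure; EC1.5x from fold change over vehicle.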
Background: In TR-FRET formats the signal depends on donor and acceptor labels being close together.

Setting [2] is: HEK293H cells stably transfected with SMN2-A minigene, 24 hours, 7-point concentration curve, 1.5-fold relative to vehicle-treated cells.

Where two headings read alike, the source gives them in different places. A value given as a limit tells only on which side of the number the result lay.

A word on the melting point: it is the temperature, or range, at which the solid turns liquid. As to `Cc1cn2cc(-c3cc4ccc(CN5CCN(C)CC5)cc4oc3=O)nc2c(C)n1` [Compound 849, 3-(6,8-dimethylimidazo[1,2-a]pyrazin-2-yl)-7-[(4-methylpiperazin-1-yl)methyl]-2H-chromen-2-one], the melting point lay in the range of 220 to 223 °C. The EC (1.5-fold) in data set [1] (setting [2]) lay in the range of 0.1 to 0.3 µM. Besides, in the data set on Smn protein, the EC1.5x (concentration giving 1.5-fold Smn protein increase) fell in the range of 300 to 1000 nM and the “maximum fold (Fold) increase of Smn protein” value (“maximum fold (Fold) increase” for short) is reported as “***** (fold increase >1.65)”.

`Cc1cn2cc(-c3cc4ccc(CCN(C)C)cc4oc3=O)nc2c(C)n1` [Compound 864, 7-[2-(dimethylamino)ethyl]-3-(6,8-dimethylimidazo[1,2-a]pyrazin-2-yl)-2H-chromen-2-one]: the melting point lay within 219 to 223 °C. Moreover, the EC (1.5-fold) in data set [1] (setting [2]) is less than 0.1 µM. Moreover, in the data set on Smn protein, the EC1.5x (concentration giving 1.5-fold Smn protein increase) is less than 300 nM and the “maximum fold (Fold) increase” value is on record as “***** (fold increase >1.65)”.

In the case of `Cc1cn2cc(-c3cc4ccc(N5CCCNCC5)cc4oc3=O)nc2s1` [Compound 233, 7-(1,4-diazepan-1-yl)-3-(2-methylimidazo[2,1-b][1,3]thiazol-6-yl)-2H-chromen-2-one], the melting point lay within 188 to 191 °C. The EC (1.5-fold) in data set [1] (setting [2]) lay within 0.1 to 0.3 µM. Besides, the “maximum fold (Fold) increase” value in the data set on Smn protein was “*** (fold increase between >1.35 and ≤1.5)”.

In turn, `O=c1oc2cc(N3CCNCC3)cc(F)c2cc1-c1nc2c(C(F)(F)F)cccc2o1` [Compound 254, 5-fluoro-7-(piperazin-1-yl)-3-[4-(trifluoromethyl)-1,3-benzoxazol-2-yl]-2H-chromen-2-one] came in with a melting point of 249 to 253 °C. Further, the EC (1.5-fold) in data set [1] (setting [2]) fell in the range of 0.3 to 1 µM. Besides, the “maximum fold (Fold) increase” value in the data set on Smn protein is given as “* (maximum fold increase of ≤1.2)”.

`Cc1ccc2nc(-c3cc4ccc(N5CCN[C@H](C)C5)cc4oc3=O)cn2c1` [Compound 220, 3-(6-methylimidazo[1,2-a]pyridin-2-yl)-7-[(3R)-3-methylpiperazin-1-yl]-2H-chromen-2-one] returned a melting point of 185 to 188 °C. Moreover, the EC (1.5-fold) in data set [1] (setting [2]) lay within 0.1 to 0.3 µM. The “maximum fold (Fold) increase” value in the data set on Smn protein is “** (fold increase between >1.2 and ≤1.35)”.

As for `C[C@H]1CN(c2ccc3cc(-c4cccc(Cl)c4)c(=O)oc3c2)CCN1` [Compound 509, 3-(3-chlorophenyl)-7-[(3S)-3-methylpiperazin-1-yl]-2H-chromen-2-one], the melting point lay within 149 to 151 °C. In addition, in data set [1] (setting [2]), the EC (1.5-fold) is 1 to 3 µM. In addition, in the data set on Smn protein, the “maximum fold (Fold) increase” value is on record as “* (maximum fold increase of ≤1.2)”.

For `Cc1cn2cc(-c3cc4ccc(C5=CC(C)(C)NC(C)(C)C5)cc4oc3=O)nc2c(C)n1` [Compound 949, 3-(6,8-dimethylimidazo[1,2-a]pyrazin-2-yl)-7-(2,2,6,6-tetramethyl-1,2,3,6-tetrahydropyridin-4-yl)-2H-chromen-2-one], the melting point fell in the range of 188 to 190 °C. The EC (1.5-fold) in data set [1] (setting [2]) is less than 0.1 µM. For the same compound, in the data set on Smn protein, the EC1.5x (concentration giving 1.5-fold Smn protein increase) is less than 300 nM and the “maximum fold (Fold) increase” value was “***** (fold increase >1.65)”.

The compound `Cc1ccc2nc(-c3cc4ccc(N5C[C@@H](C)N[C@@H](C)C5)cc4oc3=O)cn2n1` [Cpd 617, 7-[(3R,5S)-3,5-dimethylpiperazin-1-yl]-3-(6-methylimidazo[1,2-b]pyridazin-2-yl)-2H-chromen-2-one] registered a melting point of 225 to 227 °C. In addition, the EC (1.5-fold) in data set [1] (setting [2]) is less than 0.1 µM. Further, in the data set on Smn protein, the “maximum fold (Fold) increase” value is “*** (fold increase between >1.35 and ≤1.5)”.

On to `CCN(CC)C1CN(c2ccc3cc(-c4cn5cc(C)nc(C)c5n4)c(=O)oc3c2)C1` [Compound 944, 7-[3-(diethylamino)azetidin-1-yl]-3-(6,8-dimethylimidazo[1,2-a]pyrazin-2-yl)-2H-chromen-2-one], for which the melting point lay within 218 to 220 °C. The EC (1.5-fold) in data set [1] (setting [2]) is less than 0.1 µM. Also, in the data set with Smn protein, the EC1.5x (concentration giving 1.5-fold Smn protein increase) fell in the range of 300 to 1000 nM; the “maximum fold (Fold) increase” value was “**** (fold increase between >1.5 and ≤1.65)”.

Compound `C[C@@H]1CN(c2ccc3cc(-c4cn5cnccc5n4)c(=O)oc3c2)C[C@H](C)N1` [Compound 459, 7-[(3R,5S)-3,5-dimethylpiperazin-1-yl]-3-(imidazo[1,2-c]pyrimidin-2-yl)-2H-chromen-2-one] returned a melting point of 250 to 252 °C. In addition, the EC (1.5-fold) in data set [1] (setting [2]) is less than 0.1 µM. Moreover, in the data set with Smn protein, the EC1.5x (concentration giving 1.5-fold Smn protein increase) was 3000 to 10000 nM; the “maximum fold (Fold) increase” value was “*** (fold increase between >1.35 and ≤1.5)”.

`Cc1cn2cc(-c3cc4ccc(N5C[C@@H]6CN(C(C)C)C[C@@H]6C5)cc4oc3=O)nc2c(C)n1` [Compound 743, 3-(6,8-dimethylimidazo[1,2-a]pyrazin-2-yl)-7-[(3aR,6aS)-5-(propan-2-yl)hexahydropyrrolo[3,4-c]pyrrol-2(1H)-yl]-2H-chromen-2-one] gave a melting point of 249 to 258 °C. The EC (1.5-fold) in data set [1] (setting [2]) was less than 0.1 µM. Moreover, in the data set with Smn protein, the EC1.5x (concentration giving 1.5-fold Smn protein increase) is less than 300 nM and the “maximum fold (Fold) increase” value is “***** (fold increase >1.65)”.

Consider `CCN1CCN(c2ccc3cc(-c4cn5cc(C)sc5n4)c(=O)oc3c2)CC1` [Compound 151, 7-(4-ethylpiperazin-1-yl)-3-(2-methylimidazo[2,1-b][1,3]thiazol-6-yl)-2H-chromen-2-one], for which the melting point is 205 to 208 °C. Also, the EC (1.5-fold) in data set [1] (setting [2]) lay in the range of 3 to 30 µM. In the data set with Smn protein, the “maximum fold (Fold) increase” value was “* (maximum fold increase of ≤1.2)”.

`Cc1cn2cc(-c3cc4ccc(C5CCN(CC(C)C)CC5)cc4oc3=O)nc2cn1` [Compound 916, 3-(6-methylimidazo[1,2-a]pyrazin-2-yl)-7-[1-(2-methylpropyl)piperidin-4-yl]-2H-chromen-2-one] showed a melting point of 260 to 270 °C. In addition, the EC (1.5-fold) in data set [1] (setting [2]) was in the range of 0.1 to 0.3 µM. In addition, in the data set with Smn protein, the EC1.5x (concentration giving 1.5-fold Smn protein increase) is 300 to 1000 nM; the “maximum fold (Fold) increase” value is “**** (fold increase between >1.5 and ≤1.65)”.

The compound `Cc1ccn2cc(-c3cc4ccc(N5C[C@H]6CC[C@@H](C5)N6C)cc4oc3=O)nc2c1` [Compound 535, 7-[(1R,5S)-8-methyl-3,8-diazabicyclo[3.2.1]oct-3-yl]-3-(7-methylimidazo[1,2-a]pyridin-2-yl)-2H-chromen-2-one] had a melting point of 224 to 229 °C. In data set [1] (24 h), the EC (1.5-fold) is 1 to 3 µM. Also, the “maximum fold (Fold) increase” value with Smn protein is listed as “* (maximum fold increase of ≤1.2)”.

For `O=c1oc2cc(N3CCCNCC3)cc(F)c2cc1-c1nc2ccccc2[nH]1` [Compound 374, 3-(1H-benzimidazol-2-yl)-7-(1,4-diazepan-1-yl)-5-fluoro-2H-chromen-2-one], the melting point was in the range of 236 to 242 °C. For the same compound, the EC (1.5-fold) in data set [1] (setting [2]) is 1 to 3 µM. Further, in the data set with Smn protein, the “maximum fold (Fold) increase” value was “* (maximum fold increase of ≤1.2)”.

In turn, `Cc1cn2cc(-c3cc4ccc(C5CCN(C6COC6)CC5)cc4oc3=O)ccc2n1` [Compound 828, 3-(2-methylimidazo[1,2-a]pyridin-6-yl)-7-[1-(oxetan-3-yl)piperidin-4-yl]-2H-chromen-2-one] showed a melting point of 198 to 200 °C. Also, the EC (1.5-fold) in data set [1] (setting [2]) lay within 0.1 to 0.3 µM. For the same compound, in the data set with Smn protein, the EC1.5x (concentration giving 1.5-fold Smn protein increase) lay in the range of 300 to 1000 nM and the “maximum fold (Fold) increase” value was “***** (fold increase >1.65)”.

Compound `CCc1ccn2cc(-c3cc4ccc(N5CCN(C)CC5)cc4oc3=O)nc2c1` [Compound 288, 3-(7-ethylimidazo[1,2-a]pyridin-2-yl)-7-(4-methylpiperazin-1-yl)-2H-chromen-2-one] came in with a melting point of 203 to 211 °C. The EC (1.5-fold) in data set [1] (setting [2]) is 1 to 3 µM. Moreover, the “maximum fold (Fold) increase” value in the data set on Smn protein is recorded as “* (maximum fold increase of ≤1.2)”.

In the case of `COc1ccc(-c2cc3c(F)cc(N4C[C@@H]5C[C@H]4CN5)cc3oc2=O)cc1OC` [Compound 446, 7-[(1S,4S)-2,5-diazabicyclo[2.2.1]hept-2-yl]-3-(3,4-dimethoxyphenyl)-5-fluoro-2H-chromen-2-one], the melting point lay within 239 to 241 °C. For the same compound, the EC (1.5-fold) in data set [1] (setting [2]) lay within 3 to 30 µM. Moreover, the “maximum fold (Fold) increase” value in the data set on Smn protein was “* (maximum fold increase of ≤1.2)”.

In the case of `Cc1cn2cc(-c3cc4ccc(N5CC[C@H](CN(C)C)C5)cc4oc3=O)nc2c(C)n1` [Compound 965, 7-{(3R)-3-[(dimethylamino)methyl]pyrrolidin-1-yl}-3-(6,8-dimethylimidazo[1,2-a]pyrazin-2-yl)-2H-chromen-2-one], the melting point fell in the range of 206 to 208 °C. Besides, the EC (1.5-fold) in data set [1] (setting [2]) is less than 0.1 µM. In the data set with Smn protein, the EC1.5x (concentration giving 1.5-fold Smn protein increase) is less than 300 nM; the “maximum fold (Fold) increase” value was “*** (fold increase between >1.35 and ≤1.5)”.

In turn, `Cl.O=c1oc2cc(N3CCNCC3)ccc2cc1-c1nc2c(I)cccc2o1` [Compound 67, 3-(4-iodo-1,3-benzoxazol-2-yl)-7-(piperazin-1-yl)-2H-chromen-2-one hydrochloride] came in with a melting point of 280 to 285 °C. Also, in data set [1] (setting [2]), the EC (1.5-fold) was 0.3 to 1 µM. In the data set on Smn protein, the “maximum fold (Fold) increase” value is recorded as “* (maximum fold increase of ≤1.2)”.

Compound `CC(C)NCc1ccc2cc(-c3cn4ccsc4n3)c(=O)oc2c1` [Compound 199, 3-(imidazo[2,1-b][1,3]thiazol-6-yl)-7-[(propan-2-ylamino)methyl]-2H-chromen-2-one] showed a melting point of 141 to 145 °C. In data set [1] (setting [2]), the EC (1.5-fold) lay within 1 to 3 µM. Moreover, in the data set with Smn protein, the “maximum fold (Fold) increase” value is “** (fold increase between >1.2 and ≤1.35)”.
